For assay [1], the system named is B16-F10 (mouse melanoma). As to the kind of experiment: Growth inhibition, MTT colorimetric assay, B16F10. In kind it is cell-based. The settings on record: melanoma, 3 days with drug, means of six values, unit inferred, read-out: IC50 B16F10. Here is the method: (§1) Compounds that met the criteria for activity on KB3 cells were further tested for drug growth inhibitory activity in 5 carcinoma, 6 glioma and 3 melanoma cell lines, shown in Table 4. A549 (human lung adenocarcinoma epithelial), BxPC3 (pancreatic cancer), LoVo (colon cancer), MCF-7 (epithelial breast cancer), PC3 (human prostate cancer), Hs683 (human glioma), T98G (glioblastoma), U373 (human glioblastoma-astrocytoma), U138 MG (human glioma), epithelial-like), SKMEL28 (human melanoma), B16-F10 (mouse melanoma) and RhTP (rhabdomyosarcoma) cell lines were cultured in presence of the drugs for 3 days. The cytotoxic activity is expressed as (IC50). Inhibition of cell proliferation measured by the MTT colorimetric assay. The values reported in Table 4 are means of six distinct values. The standard errors are <5% as compared to the mean values.
Background: Tetrazolium dyes change colour on reduction, which living cells bring about.

In assay [2] the test system is PC3 (human prostate cancer). Description: Growth inhibition, MTT colorimetric assay, PC3. The assay is classed as cell-based. The settings on record: carcinoma, 3 days with drug, means of six values, unit inferred, read-out: IC50 PC3. The method, then:
as §1

Assay [3] concerns Hs683 (human glioma). Description: Growth inhibition, MTT colorimetric assay, HS683. In kind it is cell-based. Particulars: glioma, 3 days with drug, means of six values, unit inferred, read-out: IC50 HS683. Here is the method:
as §1, with “A549” for “Compounds that met the criteria for activity on KB3 cells were further tested for drug growth inhibitory activity in 5 carcinoma, 6 glioma and 3 melanoma cell lines, shown in Table 4. A549”, “values.” for “values. The standard errors are <5% as compared to the mean values.”

Assay [4] deals with RhTP (rhabdomyosarcoma). Description: Growth inhibition, MTT colorimetric assay, RhTp. The assay is classed as cell-based. The settings on record: 3 days with drug, means of six values, unit inferred, read-out: IC50 RhTp. The method, then: as §1
Assay [5] has as its system U373 (human glioblastoma-astrocytoma). Description: Growth inhibition, MTT colorimetric assay, U373. In kind it is cell-based. The settings on record: glioma, 3 days with drug, means of six values, unit inferred, read-out: IC50 U373. Here is the method: as §1
Assay [6] concerns GL19. Description: Growth inhibition, MTT colorimetric assay, GL19. In kind it is cell-based. The settings on record: 3 days with drug, means of six values, unit inferred, read-out: IC50 GL19. Here is the method:
as §1

Assay [7] relates to bloodstream forms of T. brucei and T. congolense. As to the kind of experiment: Trypanocidal activity in vitro, Alamar Blue assay. The assay is classed as cell-based, Trypanosoma brucei and T. congolense. Particulars: 48 h total incubation; for GI50: 50% growth inhibition, read-out: GI50; for MIC: lowest concentration at which all cells were killed, read-out: MIC. The text has this:
Trypanosoma brucei and T. congolense are the causative agents of sleeping sickness in humans and nagana in cattle, respectively. The protozoan parasites live extracellularlyin blood and tissue fluids of mammals and are transmitted by the bite of infected tsetse flies (Glossina spp.). Here the trypanocidal activity against bloodstream forms of T. brucei and T. congolense of bis-8-hydroxy quinoline N-substituted benzylamines derivatives was investigated in vitro, according to methods described in. Steverding et al. (2006) Kinetoplastid Biology and Disease, 5(3): 1-5; Hongmance et al., (2007) Antimicrob. Agents Chemother. 51:1105-1106; and Zhao et al., (2005) Bio-org. Med. Chem.; 13: 3921-3926. Cells were seeded into 96-well tissue culture plates in 200 μl medium containing various concentrations of analogues dissolved in H2O. The controls contained the respective solvent alone. […] After 24 h (trypanosomes) or 43 h (HL-60) incubation, 20 μl of the colorimetric viability indicator Alamar Blue® was added to each well. The cells were incubated for a further 24 h (trypanosomes) or 5 h (HL-60) so that the total incubation time was 48 h. Then, the plates were read on a Dynatech MR5000ELISA reader (Denkendorf, Germany),using a test wavelength of 550 nm and a reference wave length of 630 nm. Each test was set up in duplicate and repeated three times. For comparison, the general cytotoxicity of the compounds was assayed with human myeloid leukaemia HL-60 cells. The anti-trypanosomal activities and the general cytotoxicities of the new analogues were evaluated using the Alamar Blue® assay.

In assay [8] the test system is T98G (glioblastoma). Description: cells. The assay is classed as cell-based. Particulars: glioma, 3 days with drug, means of six values, unit inferred, read-out: IC50 T98G. The method, then:
as §1, with “A549” for “Compounds that met the criteria for activity on KB3 cells were further tested for drug growth inhibitory activity in 5 carcinoma, 6 glioma and 3 melanoma cell lines, shown in Table 4. A549”, “values.” for “values. The standard errors are <5% as compared to the mean values.”

For assay [9], the system named is SKMEL28 (human melanoma). As to the kind of experiment: Growth inhibition, MTT colorimetric assay, SKMEL-28. The assay is classed as cell-based. Particulars: melanoma, 3 days with drug, means of six values, unit inferred, read-out: IC50 SKMEL-28. Here is the method: as §1
Assay [10] relates to Host. As to the kind of experiment: Growth inhibition, MTT colorimetric assay, Host. The assay is classed as cell-based. Particulars: 3 days with drug, means of six values, unit inferred, read-out: IC50 Host. Here is the method: as §1
The test system of assay [11] is A549 (human lung adenocarcinoma epithelial). As to the kind of experiment: Growth inhibition, MTT colorimetric assay, A549. The assay is classed as cell-based. Particulars: carcinoma, 3 days with drug, means of six values, unit inferred, read-out: IC50 A549. The method, then:
as §1, with “A549” for “Compounds that met the criteria for activity on KB3 cells were further tested for drug growth inhibitory activity in 5 carcinoma, 6 glioma and 3 melanoma cell lines, shown in Table 4. A549”, “values.” for “values. The standard errors are <5% as compared to the mean values.”

Assay [12] has as its system KaKa. Description: Growth inhibition, MTT colorimetric assay, KaKa. The assay is classed as cell-based. Particulars: 3 days with drug, means of six values, unit inferred, read-out: IC50 KaKa. Here is the method:
as §1

Assay [13] concerns U138 MG (human glioma). As to the kind of experiment: Growth inhibition, MTT colorimetric assay, U138. The assay is classed as cell-based. Particulars: glioma, 3 days with drug, means of six values, unit inferred, read-out: IC50 U138. The method, then:
as §1

Assay [14] concerns LoVo (colon cancer). Description: Growth inhibition, MTT colorimetric assay, LoVo. In kind it is cell-based. The settings on record: carcinoma, 3 days with drug, means of six values, unit inferred, read-out: IC50 LoVo. The method, then:
as §1, with “A549” for “Compounds that met the criteria for activity on KB3 cells were further tested for drug growth inhibitory activity in 5 carcinoma, 6 glioma and 3 melanoma cell lines, shown in Table 4. A549”, “values.” for “values. The standard errors are <5% as compared to the mean values.”

Assay [15] deals with MCF-7 (epithelial breast cancer). Description: Growth inhibition, MTT colorimetric assay, MCF7. In kind it is cell-based. The settings on record: carcinoma, 3 days with drug, means of six values, unit inferred, read-out: IC50 MCF7. Here is the method:
as §1, with “A549” for “Compounds that met the criteria for activity on KB3 cells were further tested for drug growth inhibitory activity in 5 carcinoma, 6 glioma and 3 melanoma cell lines, shown in Table 4. A549”, “values.” for “values. The standard errors are <5% as compared to the mean values.”

Assay [16] relates to KB3 (epitheloid lung cancer) cell lines. As to the kind of experiment: Cell growth inhibition (cytotoxicity), MTS assay, KB3 cell line. The settings on record: Table 3A, MTS assay, triplicate, read-out: KB3 IC50. In kind it is cell-based. The method, then:
Cell growth inhibition was determined by the MTS assay; the number of viable cells were proportional to the extent of formazan production in the presence or absence of drugs. […]

Assay [17] has as its system BxPC3 (pancreatic cancer). Description: Growth inhibition, MTT colorimetric assay, BxPC3. The assay is classed as cell-based, human. Particulars: carcinoma, 3 days with drug, means of six values, unit inferred, read-out: IC50 BxPC3. Here is the method:
Cells are cultured at 37° C. in Falcon culture dishes, incubated at 5% CO2 in a suitable culture medium available from Invitrogen Corp. Anti-proliferative activity is determined by an MTT assay (bromide of (3-[4,5-dimethylthiazolium-yl]diphenyltetrazolium)). According to one standard protocol, absorbance is measured at 570 nm (see Dumont et al. (2007) Neoplasia 9: 766-776.
as §1, with “A549” for “Compounds that met the criteria for activity on KB3 cells were further tested for drug growth inhibitory activity in 5 carcinoma, 6 glioma and 3 melanoma cell lines, shown in Table 4. A549”, “values.” for “values. The standard errors are <5% as compared to the mean values.”

Converted amounts (≈) assume the structure as drawn. Where two headings read alike, the source gives them in different places. Where only a bound is given, the exact number is not on record here.

On to “5,5′-(3,5-bis(trifluorométhyl)benzylazanediyl)bis(méthylène)diquinoléin-8-ol [BPM18,201]”, for which the 50% inhibitory concentration (IC50) (in general, the concentration needed to halve the response being measured) was 76 nM in [1]; 71 nM in assay [2]; 181 nM in assay [3]; 47 nM in [4]; 96 nM in [5]; 2140 nM in assay [6]. Besides, the IC50 is 72 nM in [8]; > 10000 nM in [9]; 146 nM in [10]; 9 nM in assay [11]; 98 nM in assay [12]; 46 nM in assay [13]. The half-maximal inhibitory concentration (IC50) in [14] came to 10 nM; in [15], 38 nM; in assay [16] it was 1000 nM; in assay [17], 79 nM. Besides, in assay [7], the GI50 (commonly the concentration giving 50% growth inhibition) turned out to be 320 ± 10 nM. The MIC – broadly, the lowest concentration found to suppress growth – in assay [7] is reported as 1 µM.
Regarding `Oc1ccc(CN(Cc2cccc(I)c2)Cc2ccc(O)c3ncccc23)c2cccnc12` [BPM19,200, 5,5′-(3-iodobenzylazanediyl)bis(methylene)diquinolin-8-ol], the IC50 was 888 nM in assay [1] (Mus musculus, B16-F10, 72 h); 394 nM in assay [2] (Homo sapiens, 72 h); 479 nM in assay [3] (Homo sapiens, Hs 683, 72 h); 788 nM in [4] (72 h); 5600 nM in assay [5] (Homo sapiens, U373 MG, 72 h); > 10000 nM in [6] (GL19, 72 h). Besides, the IC50 was 446 nM in [8] (Homo sapiens, T98G, 72 h); 9850 nM in assay [9] (Homo sapiens, SK-MEL-28, 72 h); 2980 nM in assay [10] (72 h); 350 nM in assay [11] (Homo sapiens, A549, 72 h); 7680 nM in [12] (72 h); 430 nM in assay [13] (Homo sapiens, U138-MG, 72 h). Further, the half-maximal inhibitory concentration (IC50) in assay [14] (Homo sapiens, LoVo, 72 h) is 393 nM; in assay [15] (Homo sapiens, MCF7, 72 h), 374 nM; in assay [16] (KB3), 1000 nM; in assay [17] (Homo sapiens, BXPC-3, 72 h) it was 3810 nM.
On to `Oc1ccc(CN(Cc2ccc(O)c3ncccc23)CC2CCCCC2)c2cccnc12` [BPM19,219, 5,5′-cyclohexylmethylazanediyl-bis-[(methylene)di(quinolin-8-ol)]], for which the IC50 is 873 nM in [1]; 421 nM in [2]; 584 nM in assay [3]; 865 nM in [4]; 2570 nM in assay [5]; 8970 nM in assay [6]. Besides, the IC50 in [8] is 486 nM; in assay [9] it was > 10000 nM; in [10], 1540 nM; in assay [11], 369 nM; in [12], 5940 nM; in [13], 446 nM. Besides, the half-inhibitory concentration (IC50) was 357 nM in assay [14], 365 nM in assay [15] and 3810 nM in assay [17]. The 50% growth inhibitory concentration (GI50) in assay [7] was 2950 ± 180 nM. Further, in assay [7], the MIC worked out at 10 µM (≈ 4.28 µg/mL).
For `O=C(O)C1CCC(CN(Cc2ccc(O)c3ncccc23)Cc2ccc(O)c3ncccc23)CC1` (stereo not drawn) [BPM19,225, 4-((bis((8-hydroxyquinolin-5-yl)methyl)amino)-methyl)cyclohexanecarboxylic acid], the IC50 is > 10000 nM in assay [1] (Mus musculus, B16-F10, 72 h); 993 nM in assay [2] (Homo sapiens, 72 h); 2860 nM in assay [3] (Homo sapiens, Hs 683, 72 h); > 10000 nM in assay [4] (72 h); 3730 nM in assay [5] (Homo sapiens, U373 MG, 72 h); 7600 nM in assay [6] (GL19, 72 h). Besides, the 50% inhibitory concentration (IC50) in assay [8] (Homo sapiens, T98G, 72 h) was 9760 nM; in assay [9] (Homo sapiens, SK-MEL-28, 72 h) it was > 10000 nM; in assay [10] (72 h), > 10000 nM; in assay [11] (Homo sapiens, A549, 72 h) it was 661 nM; in assay [12] (72 h) it was > 10000 nM; in assay [13] (Homo sapiens, U138-MG, 72 h) it was > 10000 nM. Also, the half-maximal inhibitory concentration (IC50) in assay [14] (Homo sapiens, LoVo, 72 h) was found to be 422 nM; in assay [15] (Homo sapiens, MCF7, 72 h) it was 9460 nM; in [17] (Homo sapiens, BXPC-3, 72 h), 4340 nM.

These data come from patent publication US20110251238A1, “PPAR AGONIST COMPOSITIONS AND METHODS OF USE” (BIOPHARMED, priority 2008, published 2011).
